Assays:
Assay in all cases: Kinase selectivity, DiscoverX scanMAX Kinase assay panel (% control)
Format in all cases: binding
[1] = target: T1, kinases of the scanMAX Kinase assay panel (Homo sapiens, UniProt Q16620); details: kinase TRKB; 1 uM in DMSO
T1 construct: purchased DiscoverX Co. (contract measurement) scanMAX Kinase assay panel
Method in brief: (§1)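 Single-point screen, 1 uM cpd in DMSO. % ctrl = (cpd − pos ctrl)/(neg ctrl − pos ctrl)×100; pos ctrl = 0%, DMSO neg ctrl = 100%. Hit cutoff <35%.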

[2] = target: T2, kinases of the scanMAX Kinase assay panel (Homo sapiens, UniProt Q9Y243); details: AKT3; 1 uM
T2 construct: purchased DiscoverX Co. (contract measurement) scanMAX Kinase assay panel
T2 sequence (Q9Y243 whole entry): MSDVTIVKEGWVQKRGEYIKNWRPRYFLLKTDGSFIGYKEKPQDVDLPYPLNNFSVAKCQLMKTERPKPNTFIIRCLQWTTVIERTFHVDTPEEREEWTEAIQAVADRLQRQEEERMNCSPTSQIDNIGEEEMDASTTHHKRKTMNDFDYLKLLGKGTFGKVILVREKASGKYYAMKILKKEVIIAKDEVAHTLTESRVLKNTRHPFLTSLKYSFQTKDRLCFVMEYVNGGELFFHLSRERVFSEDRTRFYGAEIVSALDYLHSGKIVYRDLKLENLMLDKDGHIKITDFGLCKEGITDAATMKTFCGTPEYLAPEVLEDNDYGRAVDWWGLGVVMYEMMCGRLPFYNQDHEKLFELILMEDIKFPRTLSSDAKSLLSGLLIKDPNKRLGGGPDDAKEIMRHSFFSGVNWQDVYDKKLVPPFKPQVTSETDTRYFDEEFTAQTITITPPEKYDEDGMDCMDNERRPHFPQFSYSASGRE
Method in brief: as §1

[3] = target: T3, kinases of the scanMAX Kinase assay panel (Homo sapiens, UniProt P42336, E545A); details: PIK3CA(E545A); 1 uM
T3 construct: purchased DiscoverX Co. (contract measurement) scanMAX Kinase assay panel
T3 sequence (P42336 whole entry E545A): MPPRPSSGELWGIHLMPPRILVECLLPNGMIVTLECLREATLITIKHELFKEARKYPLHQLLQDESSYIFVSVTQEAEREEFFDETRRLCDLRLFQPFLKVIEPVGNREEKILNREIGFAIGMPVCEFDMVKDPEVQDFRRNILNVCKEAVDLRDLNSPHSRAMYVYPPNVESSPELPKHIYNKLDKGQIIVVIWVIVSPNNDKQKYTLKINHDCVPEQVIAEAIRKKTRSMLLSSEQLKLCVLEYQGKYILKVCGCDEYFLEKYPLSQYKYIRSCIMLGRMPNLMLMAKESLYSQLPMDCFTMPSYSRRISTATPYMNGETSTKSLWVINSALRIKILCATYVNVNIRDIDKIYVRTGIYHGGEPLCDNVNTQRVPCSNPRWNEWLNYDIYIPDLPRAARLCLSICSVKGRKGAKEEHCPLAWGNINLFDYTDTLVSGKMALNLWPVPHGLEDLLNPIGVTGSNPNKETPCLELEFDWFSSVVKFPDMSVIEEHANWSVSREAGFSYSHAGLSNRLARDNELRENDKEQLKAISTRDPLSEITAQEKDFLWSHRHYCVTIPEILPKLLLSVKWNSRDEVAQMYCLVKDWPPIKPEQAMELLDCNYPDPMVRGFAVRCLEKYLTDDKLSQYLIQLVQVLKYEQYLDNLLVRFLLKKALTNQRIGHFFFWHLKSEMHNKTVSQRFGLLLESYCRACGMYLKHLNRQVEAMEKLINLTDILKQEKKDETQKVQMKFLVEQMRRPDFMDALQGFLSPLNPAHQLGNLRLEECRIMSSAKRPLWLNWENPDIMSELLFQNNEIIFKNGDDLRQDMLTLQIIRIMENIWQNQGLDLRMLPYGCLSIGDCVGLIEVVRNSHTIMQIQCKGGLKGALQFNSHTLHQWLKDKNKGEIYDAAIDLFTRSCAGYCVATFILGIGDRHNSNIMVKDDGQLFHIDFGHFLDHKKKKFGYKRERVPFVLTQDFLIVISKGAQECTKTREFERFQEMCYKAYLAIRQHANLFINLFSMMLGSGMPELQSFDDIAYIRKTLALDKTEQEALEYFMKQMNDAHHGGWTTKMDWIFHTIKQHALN
Method in brief: as §1

[4] = target: T4, kinases of the scanMAX Kinase assay panel (Homo sapiens, UniProt Q9NWZ3); details: IRAK4; 1 uM
T4 construct: purchased DiscoverX Co. (contract measurement) scanMAX Kinase assay panel
T4 sequence (Q9NWZ3 1-460): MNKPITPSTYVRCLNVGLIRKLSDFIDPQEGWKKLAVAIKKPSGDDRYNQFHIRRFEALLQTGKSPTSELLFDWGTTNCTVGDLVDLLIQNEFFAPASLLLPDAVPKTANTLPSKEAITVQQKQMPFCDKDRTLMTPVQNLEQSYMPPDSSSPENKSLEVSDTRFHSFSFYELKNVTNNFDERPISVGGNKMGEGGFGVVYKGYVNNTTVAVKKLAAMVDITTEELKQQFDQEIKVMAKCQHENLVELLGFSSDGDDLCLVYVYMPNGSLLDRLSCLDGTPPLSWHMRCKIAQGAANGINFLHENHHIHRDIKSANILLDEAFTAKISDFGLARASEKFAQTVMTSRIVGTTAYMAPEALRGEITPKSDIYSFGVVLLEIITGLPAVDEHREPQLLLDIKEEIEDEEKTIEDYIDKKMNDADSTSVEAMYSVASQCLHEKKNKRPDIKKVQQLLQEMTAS
Method in brief: as §1

[5] = target: T5, kinases of the scanMAX Kinase assay panel (Homo sapiens, UniProt P16591); details: FER; 1 uM
T5 construct: purchased DiscoverX Co. (contract measurement) scanMAX Kinase assay panel
T5 sequence (P16591 whole entry): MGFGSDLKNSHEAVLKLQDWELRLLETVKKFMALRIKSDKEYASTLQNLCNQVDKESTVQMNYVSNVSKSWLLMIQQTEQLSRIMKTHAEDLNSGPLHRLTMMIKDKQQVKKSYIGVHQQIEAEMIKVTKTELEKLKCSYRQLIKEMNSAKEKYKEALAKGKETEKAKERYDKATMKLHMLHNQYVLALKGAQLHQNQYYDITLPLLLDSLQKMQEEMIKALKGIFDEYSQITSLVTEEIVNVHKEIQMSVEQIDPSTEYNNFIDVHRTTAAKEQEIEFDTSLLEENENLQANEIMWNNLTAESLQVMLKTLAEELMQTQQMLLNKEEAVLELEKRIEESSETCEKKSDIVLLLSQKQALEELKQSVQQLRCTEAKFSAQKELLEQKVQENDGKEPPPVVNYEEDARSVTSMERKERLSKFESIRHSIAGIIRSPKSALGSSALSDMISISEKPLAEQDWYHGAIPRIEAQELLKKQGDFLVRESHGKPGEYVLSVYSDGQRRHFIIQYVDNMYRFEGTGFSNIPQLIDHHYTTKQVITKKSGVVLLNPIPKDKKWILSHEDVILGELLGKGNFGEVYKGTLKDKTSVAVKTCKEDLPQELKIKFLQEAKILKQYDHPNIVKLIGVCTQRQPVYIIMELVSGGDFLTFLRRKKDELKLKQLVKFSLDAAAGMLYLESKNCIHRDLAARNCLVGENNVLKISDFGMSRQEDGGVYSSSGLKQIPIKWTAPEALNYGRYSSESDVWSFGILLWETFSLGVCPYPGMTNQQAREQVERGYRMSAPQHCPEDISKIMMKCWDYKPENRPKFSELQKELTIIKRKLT
Method in brief: as §1

[6] = target: T6, kinases of the scanMAX Kinase assay panel (Homo sapiens, UniProt P36888, D835Y); details: FLT3(D835Y); 1 uM
T6 construct: purchased DiscoverX Co. (contract measurement) scanMAX Kinase assay panel
T6 sequence (P36888 27-993 D835Y): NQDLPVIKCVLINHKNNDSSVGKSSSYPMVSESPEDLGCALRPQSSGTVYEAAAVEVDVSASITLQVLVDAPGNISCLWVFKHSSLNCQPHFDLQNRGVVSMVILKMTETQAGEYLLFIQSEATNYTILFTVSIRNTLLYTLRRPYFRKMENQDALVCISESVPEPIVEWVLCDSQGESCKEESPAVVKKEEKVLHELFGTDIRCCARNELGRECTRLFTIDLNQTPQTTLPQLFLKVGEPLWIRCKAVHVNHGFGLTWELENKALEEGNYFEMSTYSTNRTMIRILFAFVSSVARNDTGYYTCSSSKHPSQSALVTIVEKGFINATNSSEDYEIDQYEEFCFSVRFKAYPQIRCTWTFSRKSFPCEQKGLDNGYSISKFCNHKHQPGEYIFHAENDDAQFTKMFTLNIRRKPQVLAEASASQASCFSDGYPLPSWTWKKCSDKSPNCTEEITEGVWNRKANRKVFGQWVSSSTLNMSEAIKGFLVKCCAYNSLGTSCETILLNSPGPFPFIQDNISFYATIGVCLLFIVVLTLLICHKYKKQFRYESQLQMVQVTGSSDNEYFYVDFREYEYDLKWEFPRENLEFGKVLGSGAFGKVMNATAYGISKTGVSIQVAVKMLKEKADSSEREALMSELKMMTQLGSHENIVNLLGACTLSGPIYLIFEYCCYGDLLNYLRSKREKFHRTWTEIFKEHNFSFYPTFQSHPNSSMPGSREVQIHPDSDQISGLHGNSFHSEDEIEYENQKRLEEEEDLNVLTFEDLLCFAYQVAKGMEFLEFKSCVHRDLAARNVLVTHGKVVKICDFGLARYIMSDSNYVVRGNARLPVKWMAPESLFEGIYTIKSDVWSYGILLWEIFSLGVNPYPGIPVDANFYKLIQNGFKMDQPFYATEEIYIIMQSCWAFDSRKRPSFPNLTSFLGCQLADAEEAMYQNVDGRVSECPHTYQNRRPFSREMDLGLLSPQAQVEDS
Method in brief: as §1

[7] = target: T7, kinases of the scanMAX Kinase assay panel (Homo sapiens, UniProt O43683); details: BUB1; 1 uM
T7 construct: purchased DiscoverX Co. (contract measurement) scanMAX Kinase assay panel
T7 sequence (O43683 whole entry): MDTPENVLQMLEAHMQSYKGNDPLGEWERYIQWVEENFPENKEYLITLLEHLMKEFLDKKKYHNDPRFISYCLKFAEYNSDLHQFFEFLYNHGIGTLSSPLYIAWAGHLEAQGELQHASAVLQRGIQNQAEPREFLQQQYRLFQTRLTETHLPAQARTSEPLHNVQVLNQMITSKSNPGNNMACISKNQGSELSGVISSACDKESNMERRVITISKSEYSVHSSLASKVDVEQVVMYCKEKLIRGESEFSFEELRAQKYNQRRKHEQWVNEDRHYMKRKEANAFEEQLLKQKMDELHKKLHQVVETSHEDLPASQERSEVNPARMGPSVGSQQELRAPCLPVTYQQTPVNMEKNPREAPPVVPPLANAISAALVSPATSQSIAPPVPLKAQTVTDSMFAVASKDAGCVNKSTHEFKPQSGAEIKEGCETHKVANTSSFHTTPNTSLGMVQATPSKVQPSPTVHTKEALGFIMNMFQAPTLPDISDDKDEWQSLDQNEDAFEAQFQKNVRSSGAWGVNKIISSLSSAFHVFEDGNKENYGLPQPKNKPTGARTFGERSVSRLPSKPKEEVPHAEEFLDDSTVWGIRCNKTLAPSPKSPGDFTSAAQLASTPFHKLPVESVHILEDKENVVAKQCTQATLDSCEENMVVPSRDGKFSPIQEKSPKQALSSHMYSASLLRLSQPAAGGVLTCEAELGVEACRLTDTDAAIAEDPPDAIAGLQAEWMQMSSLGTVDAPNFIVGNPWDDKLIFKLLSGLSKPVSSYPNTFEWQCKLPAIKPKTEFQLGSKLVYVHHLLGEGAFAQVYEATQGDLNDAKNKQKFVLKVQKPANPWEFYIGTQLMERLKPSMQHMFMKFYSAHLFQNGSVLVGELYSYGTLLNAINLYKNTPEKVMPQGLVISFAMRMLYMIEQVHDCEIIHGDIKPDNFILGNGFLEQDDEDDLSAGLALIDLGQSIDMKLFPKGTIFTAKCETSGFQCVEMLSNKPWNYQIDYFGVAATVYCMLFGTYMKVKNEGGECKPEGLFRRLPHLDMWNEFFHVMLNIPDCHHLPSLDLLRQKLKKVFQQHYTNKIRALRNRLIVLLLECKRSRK
Method in brief: as §1

[8] = target: T8, kinases of the scanMAX Kinase assay panel (Homo sapiens, UniProt Q13043); details: MST1; 1 uM
T8 construct: purchased DiscoverX Co. (contract measurement) scanMAX Kinase assay panel
T8 sequence (Q13043 1-487): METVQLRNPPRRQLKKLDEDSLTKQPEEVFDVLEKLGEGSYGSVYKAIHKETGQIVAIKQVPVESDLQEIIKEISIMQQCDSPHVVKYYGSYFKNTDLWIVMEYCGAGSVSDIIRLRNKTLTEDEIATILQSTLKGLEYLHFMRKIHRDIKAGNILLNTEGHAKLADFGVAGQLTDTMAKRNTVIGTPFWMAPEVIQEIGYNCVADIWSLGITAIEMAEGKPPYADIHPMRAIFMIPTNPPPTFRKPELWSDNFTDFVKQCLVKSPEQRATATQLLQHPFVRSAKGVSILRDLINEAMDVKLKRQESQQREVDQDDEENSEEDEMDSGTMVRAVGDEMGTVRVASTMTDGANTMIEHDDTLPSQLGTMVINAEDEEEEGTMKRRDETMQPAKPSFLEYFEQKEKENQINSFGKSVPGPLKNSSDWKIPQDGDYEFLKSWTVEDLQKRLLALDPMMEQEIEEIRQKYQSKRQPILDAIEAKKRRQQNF
Method in brief: as §1

[9] = target: T9, kinases of the scanMAX Kinase assay panel (Homo sapiens, UniProt Q9NY57); details: kinase YANK2; 1 uM in DMSO
T9 construct: purchased DiscoverX Co. (contract measurement) scanMAX Kinase assay panel
T9 sequence (Q9NY57 whole entry): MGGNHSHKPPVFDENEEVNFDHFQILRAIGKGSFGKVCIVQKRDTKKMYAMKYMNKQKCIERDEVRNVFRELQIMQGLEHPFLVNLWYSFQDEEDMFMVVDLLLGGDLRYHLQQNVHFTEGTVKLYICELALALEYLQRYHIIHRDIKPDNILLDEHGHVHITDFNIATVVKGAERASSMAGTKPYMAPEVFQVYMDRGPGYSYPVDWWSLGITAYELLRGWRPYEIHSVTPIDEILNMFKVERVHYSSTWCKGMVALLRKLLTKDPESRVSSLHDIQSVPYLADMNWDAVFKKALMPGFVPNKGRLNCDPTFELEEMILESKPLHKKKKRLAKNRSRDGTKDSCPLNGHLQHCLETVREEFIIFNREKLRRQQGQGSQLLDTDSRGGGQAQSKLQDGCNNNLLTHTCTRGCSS
Method in brief: as §1

T1 sequence (Q16620 32-822): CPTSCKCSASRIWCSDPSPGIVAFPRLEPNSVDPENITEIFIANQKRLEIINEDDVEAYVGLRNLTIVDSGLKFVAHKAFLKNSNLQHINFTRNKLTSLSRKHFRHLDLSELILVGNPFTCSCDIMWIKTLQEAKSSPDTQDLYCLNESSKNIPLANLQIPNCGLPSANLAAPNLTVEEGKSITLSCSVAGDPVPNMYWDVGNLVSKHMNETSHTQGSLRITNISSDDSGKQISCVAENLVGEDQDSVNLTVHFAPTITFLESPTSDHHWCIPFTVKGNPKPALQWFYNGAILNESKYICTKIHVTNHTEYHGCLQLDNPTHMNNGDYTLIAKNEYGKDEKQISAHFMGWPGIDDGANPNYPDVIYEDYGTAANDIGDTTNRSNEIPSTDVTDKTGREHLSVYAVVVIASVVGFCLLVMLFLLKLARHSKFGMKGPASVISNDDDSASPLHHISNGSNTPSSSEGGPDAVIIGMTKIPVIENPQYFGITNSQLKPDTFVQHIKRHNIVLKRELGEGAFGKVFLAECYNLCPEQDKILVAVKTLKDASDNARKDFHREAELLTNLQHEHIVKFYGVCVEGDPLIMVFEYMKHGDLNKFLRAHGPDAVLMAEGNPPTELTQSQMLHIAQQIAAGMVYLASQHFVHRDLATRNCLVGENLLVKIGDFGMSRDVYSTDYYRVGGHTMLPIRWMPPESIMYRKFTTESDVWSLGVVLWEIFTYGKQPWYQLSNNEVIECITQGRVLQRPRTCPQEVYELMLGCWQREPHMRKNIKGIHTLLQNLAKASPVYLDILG

Row | Compound | remaining binding at 1 µM [1] | remaining binding at 1 µM [2] | remaining binding at 1 µM [3] | remaining binding at 1 µM [4] | remaining binding at 1 µM [5] | remaining binding at 1 µM [6] | remaining binding at 1 µM [7] | remaining binding at 1 µM [8] | remaining binding at 1 µM [9]
1 | CNc1nc(Nc2ccc(C(=O)N3CCOCC3)cc2OC)nc2[nH]cc(C#N)c12 [Example 1, 2-((2-methoxy-4-(morpholine-4-carbonyl)phenyl)amino)-4-(methylamino)-7H-pyrrolo[2,3-d]pyrimidine-5-carbonitrile] | 61% | 70% | 94% | 92% | 15% | 82% | 36% | 93% | 85%
2 | CC1(Nc2nc(Nc3cnn([C@H]4CCN(C5COC5)C[C@@H]4F)c3Cl)nc3[nH]cc(C#N)c23)CC1 [Example 52, 2-((5-chloro-1-((3S,4S)-3-fluoro-1-(oxetane-3-yl)piperidine-4-yl)-1H-pyrazole-4-yl)amino)((1-methylcyclopropyl)amino)-7H-pyrrolo[2,3-d]pyrimidine-5-carbonitrile] | 7.5% | 4.5% | 71% | 0.2% | 0.25% | 0% | 0.2% | 17% | 100%
3 | CCNc1nc(Nc2ccc(C(=O)N3CCC(N4CCOCC4)CC3)cc2OC)nc2[nH]cc(C(F)(F)F)c12 [Example 104, (4-((4-(ethylamino)-5-(trifluoromethyl)-7H-pyrrolo[2,3-d]pyrimidine-2-yl)amino)-3-methoxyphenyl)(4-morpholinopiperidine-1-yl)methanone] | 100% | 100% | 90% | 100% | 3% | 14% | 95% | 100% | 100%
